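All cell lines were grown in 96-well plates and treated with compound for 48 hours. The concentration for 50% growth inhibition is given as GI50. Definition used: TGI = concentration required for complete inhibition of growth.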 Where a SMILES comes first, the peptide text is derived from it. [ ]: non-standard residue; d: D form. The star is where a group is joined. ξ: configuration not given here. ξF = NC(Cc1ccccc1)C(=O)O; Cbz = O=C(OCc1ccccc1)*; Aib = CC(C)(N)C(=O)O
What was measured:
Assay in all cases: NCI anticancer screen, dose series, 48 h
[1] = test system: NCI-H226 lung
[2] = test system: SK-OV-3 ovarian
[3] = test system: UACC-62 melanoma
[4] = test system: NCI-H23 lung
[5] = test system: OVCAR-3 ovarian
[6] = test system: COLO 205 colon
[7] = test system: MDA-N
[8] = test system: PC-3 prostate
[9] = test system: DU-145 prostate
[10] = test system: T-47D breast

| SMILES | TGI [1] [µM] | TGI [2] [µM] | TGI [3] [µM] | TGI [4] [µM] | TGI [5] [µM] | TGI [6] [µM] | TGI [7] [µM] | TGI [8] [µM] | TGI [9] [µM] | TGI [10] [µM] | GI50 [1] [µM] | GI50 [8] [µM] | GI50 [2] [µM] | GI50 [3] [µM] | GI50 [4] [µM] | GI50 [5] [µM] | GI50 [9] [µM] | GI50 [10] [µM] | GI50 [6] [µM] |
| --- | --- | --- | --- | --- | --- | --- | --- | --- | --- | --- | --- | --- | --- | --- | --- | --- | --- | --- | --- |
| CCCCOCc1cc(CN2CCN(C)CC2)c(O)c2ncccc12 | 88.4 | > 100 | 40.6 | 47.6 | > 100 | > 100 | – | – | – | – | – | – | – | – | – | – | – | – | – |
| Cc1ccc(C(O)(c2ccc(C)cc2)c2ccccn2)cc1 | > 100 | > 100 | > 100 | > 100 | > 100 | > 100 | – | – | – | – | – | – | – | – | – | – | – | – | – |
| CC(=O)ON1C(=O)c2cccc3cccc(c23)C1=O | – | > 100 | 52.5 | 50 | 68.9 | 86.7 | 93.3 | > 100 | 40.2 | 63.8 | – | – | – | – | – | – | – | – | – |
| C(=N\OCCc1ccccc1)/c1cccnc1 | > 100 | > 100 | > 100 | > 100 | > 100 | > 100 | > 100 | > 100 | > 100 | > 100 | – | – | – | – | – | – | – | – | – |
| COC(=O)C(C)(C)NC(=O)C(Cc1ccccc1)NC(=O)C(C)(C)NC(=O)OCc1ccccc1 (stereo not drawn) (Cbz-[Aib]-[ξF]-[Aib]-OMe) | – | > 100 | > 100 | – | > 100 | > 100 | > 100 | > 100 | > 100 | > 100 | – | – | – | – | – | – | – | – | – |
| NCCSCc1ccccc1Cl | > 100 | – | > 100 | 95 | 82.9 | – | > 100 | 93.8 | > 100 | > 100 | – | – | – | – | – | – | – | – | – |
| Nc1nc2ccc(OCC(O)CN3CCCCC3)cc2[n+]([O-])n1 (stereo not drawn) | > 100 | – | – | > 100 | > 100 | > 100 | > 100 | > 100 | > 100 | – | – | – | – | – | – | – | – | – | – |
| Nc1c(-c2ccccc2[N+](=O)[O-])nc2ccccn12 | > 100 | > 100 | > 100 | > 100 | > 100 | > 100 | – | – | – | – | – | – | – | – | – | – | – | – | – |
| COc1cc(-c2n/c(=C\c3c(O)[nH]c4cc(Cl)ccc34)cc3c2=Nc2ccccc2-3)cc(OC)c1OC | 21.9 | 11.3 | 14.1 | 23.2 | 6.69 | – | – | 58.4 | 7.52 | 18.5 | 3.85 | 4.59 | 3.8 | 3.4 | 3.57 | 2.13 | 2.57 | 4.19 | – |
| CC(C)(CCCCC(C)(C)C1NC(=O)N1)C1NC(=O)N1 | > 10 | > 10 | > 10 | > 10 | – | > 10 | > 10 | > 10 | > 10 | > 10 | – | – | – | – | – | – | – | – | – |
| c1cncc(O[Si](Oc2cccnc2)(Oc2cccnc2)Oc2cccnc2)c1 | > 100 | > 100 | > 100 | > 100 | > 100 | > 100 | – | – | – | – | – | – | – | – | – | – | – | – | – |
| C[CH2][Ge]([CH2]C)([CH2]C)[O]C(=O)CCC(=O)[O][Ge]([CH2]C)([CH2]C)[CH2]C | > 100 | > 100 | > 100 | > 100 | > 100 | > 100 | – | – | – | – | > 100 | – | > 100 | > 100 | 39.7 | 66 | – | – | > 100 |

Reference: PubChem BioAssay (NCI)
